{"source": "patent US20260234211A1", "about": "“POLYPEPTIDE HAVING MODIFIED STRUCTURE AND USE THEREOF” (Guangdong Raynovent Biotech Co., Ltd., priority 2023, published 2026)", "key": {"[1]": {"experiment": "Pharmacokinetic properties in Cynomolgus macaques", "conditions": "cynomolgus monkey, in vivo, male cynomolgus macaques, plasma; for AUC(0-t): read-out: AUC0-240 h; for AUC(0-inf): read-out: AUCINF; for Cmax: read-out: Cmax; for half-life: read-out: T1/2 (converted); for Tmax: read-out: Tmax", "experimental": "To test the pharmacokinetic profiles of the compounds in Cynomolgus macaques.\nNon-juvenile male cynomolgus macaques were used for experiment, 3 cynomolgus macaques for each compound. Whole blood was collected at time points of 1 h, 2 h, 4 h, 8 h, 16 h, 24 h, 48 h, 72 h, 120 h, 168 h and 240 h after administration, to prepare plasma. The drug concentration was analyzed by LC-MS/MS method, and the pharmacokinetic parameters were calculated using Phoenix WinNonlin software."}, "[2]": {"experiment": "Metabolic stability in human kidney S9", "assay_type": "in vitro ADME", "conditions": "Human kidney S9 1 mg/mL, +Cofactors (NADPH & UDPGA), 37° C.", "experimental": "The metabolic stability of the compounds in human kidney was evaluated to determine whether the drugs would be degraded by metabolic enzymes in the kidney to affect the efficacies and pharmacokinetics. 1. Relevant solutions were formulated. 2. a) With cofactors (NADPH & UDPGA): NADPH and UDPGA were added during the incubation. […] H2O was added into the culture solution. The final concentration of KS9 Fractions was 1 mg/mL. The mixture was pre-heated at 37° C. for 10 min. […] In this study, 7-hydroxy-coumarin and Raloxifene were used as the positive control. The final concentration of the positive control compounds was 0.2 μM, and the final concentration of the test compound was 1 μM. The culture solution was incubated in water bath at 37° C. 4. At 0.5, 5, 15, 30 and 60 min, volume aliquots were taken from the reaction solution and the reaction was stopped by adding acetonitrile. The samples were centrifuged for 30 min. The supernatant was taken and mixed with ultrapure water for subsequent LC-MS/MS analysis. 5. Data analysis: All calculation was conducted using Microsoft Excel. Peak areas were determined and slope values were calculated based on the extracted ion chromatograms."}, "[3]": {"biological_target": "T1, GLP-1R (Homo sapiens, UniProt P43220)", "T1 construct": "host or cells: HEK293", "T1 sequence (P43220 24-463, species assumed)": "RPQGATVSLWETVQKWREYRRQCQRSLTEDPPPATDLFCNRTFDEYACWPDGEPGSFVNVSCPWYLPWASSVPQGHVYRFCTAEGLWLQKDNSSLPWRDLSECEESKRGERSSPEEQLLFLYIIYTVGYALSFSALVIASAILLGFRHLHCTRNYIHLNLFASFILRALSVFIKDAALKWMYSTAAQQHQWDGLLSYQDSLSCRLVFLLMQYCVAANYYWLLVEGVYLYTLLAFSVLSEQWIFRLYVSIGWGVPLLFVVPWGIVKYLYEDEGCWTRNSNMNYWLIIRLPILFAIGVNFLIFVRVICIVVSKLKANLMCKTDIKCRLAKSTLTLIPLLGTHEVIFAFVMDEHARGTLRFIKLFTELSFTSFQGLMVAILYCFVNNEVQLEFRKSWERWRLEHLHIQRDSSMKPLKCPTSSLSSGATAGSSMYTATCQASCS", "experiment": "In vitro GLP-1R agonistic activity test (cAMP, HEK293 cell line)", "assay_type": "cell-based", "experimental": "The cell lines were constructed by Pharmaron Inc. See details in the table below.\nThe test compounds were diluted at a 5-fold dilution factor in 10 points, starting from an initial concentration of 200 nM.\n1) The cell lines were cultured respectively in complete medium at 37° C. and 5% CO2.\n1) Eu-cAMP tracer was freeze-thawed and diluted 50 fold with detection buffer; and Ulight-anti-cAMP was freeze-thawed and diluted 150 fold with detection buffer.\n3) 10 μL of Eu-cAMP tracer was added and then 10 μL of Uligh-anti-cAMP was added into experimental wells respectively.\n4) The reaction plate was centrifuged at 200 g at room temperature for 30 s and left for stand at 25° C. for 1 h."}, "[4]": {"conditions": "cAMP, HEK293 cells expressing GLP-1R, read-out: GLP-1 EC50"}}, "note": "Like-named read-outs stand apart in the source and are kept apart here.", "data": [{"smiles": "CC[C@H](C)[C@H](NC(=O)[C@H](Cc1ccccc1)NC(=O)[C@H](C)NC(=O)C(C)(C)NC(=O)[C@H](CCC(N)=O)NC(=O)[C@H](C)NC(=O)[C@@H]1CCCCNC(=O)CN(C(=O)COCCOCCNC(=O)CC[C@H](NC(=O)CCCCCCCCCCCCCCCCCCC(=O)O)C(=O)O)CC(=O)NCCCC[C@H](NC(=O)[C@](C)(CC(C)C)NC(=O)[C@@H](NC(=O)[C@H](CO)NC(=O)[C@H](Cc2ccc(O)cc2)NC(=O)[C@H](CC(=O)O)NC(=O)[C@H](CO)NC(=O)[C@@H](NC(=O)[C@H](Cc2ccccc2)NC(=O)[C@@H](NC(=O)CNC(=O)[C@H](CCC(N)=O)NC(=O)C(C)(C)NC(=O)[C@@H](N)Cc2ccc(O)cc2)[C@@H](C)O)[C@@H](C)O)[C@@H](C)CC)C(=O)N[C@@H](CC(=O)O)C(=O)N[C@@H](CCCCN)C(=O)N1)C(=O)N[C@@H](CCC(=O)O)C(=O)N[C@@H](Cc1ccc(O)cc1)C(=O)N[C@@H](CC(C)C)C(=O)N[C@@H](CC(C)C)C(=O)N[C@@H](CCC(=O)O)C(=O)NCC(=O)NCC(=O)N1CCC[C@H]1C(=O)N[C@@H](CO)C(=O)N[C@@H](CO)C(=O)NCC(=O)N[C@@H](C)C(=O)N1CCC[C@H]1C(=O)N1CCC[C@H]1C(=O)N1CCC[C@H]1C(=O)N[C@@H](CO)C(N)=O", "note": "[Example 21, YAibQGT FTSDY SIα- MeL^1KD K^1KAQAib AFIEY LLEGG PSSGA PPPS-NH2 (SEQ ID NO: 24)]", "values": [{"measurement": "AUC(0-t)", "setting": "[1]", "result": 4.6, "unit": "µM·h"}, {"measurement": "AUC(0-inf)", "setting": "[1]", "result": 5.94, "unit": "µM·h"}, {"measurement": "Cmax", "setting": "[1]", "result": 31.2, "unit": "nM"}, {"measurement": "half-life", "setting": "[1]", "result": 105, "unit": "h"}, {"measurement": "Tmax", "setting": "[1]", "result": 40, "unit": "h"}, {"measurement": "microsomal CLint at 1 μM", "setting": "[2]; read-out: in vitro CLint", "result": "< 3.75", "unit": "µL/min/mg"}, {"measurement": "half-life at 1 μM", "setting": "[2]; read-out: in vitro t1/2", "result": "> 3.08", "unit": "h"}]}, {"smiles": "CC[C@H](C)[C@H](NC(=O)[C@H](Cc1ccccc1)NC(=O)[C@H](C)NC(=O)C(C)(C)NC(=O)[C@H](CCC(N)=O)NC(=O)[C@H](C)NC(=O)[C@@H]1CCCCNC(=O)CN(C(=O)COCCOCCNC(=O)CC[C@H](NC(=O)CCCCCCCCCCCCCCCCCCC(=O)O)C(=O)O)CC(=O)NCCCC[C@H](NC(=O)[C@](C)(CC(C)C)NC(=O)[C@@H](NC(=O)[C@H](CO)NC(=O)[C@H](Cc2ccc(O)cc2)NC(=O)[C@H](CC(=O)O)NC(=O)[C@H](CO)NC(=O)[C@@H](NC(=O)[C@H](Cc2ccccc2)NC(=O)[C@@H](NC(=O)CNC(=O)[C@H](CCC(N)=O)NC(=O)C(C)(C)NC(=O)[C@@H](N)Cc2ccc(O)cc2)[C@@H](C)O)[C@@H](C)O)[C@@H](C)CC)C(=O)N[C@@H](CC(=O)O)C(=O)N[C@@H](CCCCN)C(=O)N1)C(=O)N[C@@H](CCC(=O)O)C(=O)N[C@@H](Cc1ccc(O)cc1)C(=O)N[C@@H](CC(C)C)C(=O)N[C@@H](CC(C)C)C(=O)N[C@@H](CCCCN)C(=O)NCC(=O)NCC(=O)N1CCC[C@H]1C(=O)N[C@@H](CO)C(=O)N[C@@H](CO)C(=O)NCC(=O)N[C@@H](C)C(=O)N1CCC[C@H]1C(=O)N1CCC[C@H]1C(=O)N1CCC[C@H]1C(=O)N[C@@H](CO)C(N)=O", "note": "[Example 38, YAibQGT FTSDY SIα- MeL^1KD K^1KAQAib AFIEY LLKGG PSSGA PPPS-NH2 (SEQ ID NO: 38)]", "values": [{"measurement": "EC50", "setting": "[3]", "result": 2, "unit": "pM"}, {"measurement": "AUC(0-t)", "setting": "[1]", "result": 3.88, "unit": "µM·h"}, {"measurement": "AUC(0-inf)", "setting": "[1]", "result": 4.41, "unit": "µM·h"}, {"measurement": "Cmax", "setting": "[1]", "result": 33.9, "unit": "nM"}, {"measurement": "half-life", "setting": "[1]", "result": 74.9, "unit": "h"}, {"measurement": "Tmax", "setting": "[1]", "result": 21.3, "unit": "h"}]}, {"smiles": "CC[C@H](C)[C@H](NC(=O)[C@H](Cc1ccccc1)NC(=O)[C@@H]1CCCCNC(=O)CN(C(=O)[C@@H](N)CCCCNC(=O)[C@@H](N)CCCCNC(=O)CC[C@H](NC(=O)CCCCCCCCCCCCCCCCCCC(=O)O)C(=O)O)CC(=O)NCCCC[C@H](NC(=O)[C@H](CCCCN)NC(=O)[C@H](CC(=O)O)NC(=O)[C@H](CC(C)C)NC(=O)[C@](C)(CC(C)C)NC(=O)[C@@H](NC(=O)[C@H](CO)NC(=O)[C@H](Cc2ccc(O)cc2)NC(=O)[C@H](CC(=O)O)NC(=O)[C@H](CO)NC(=O)[C@@H](NC(=O)[C@H](Cc2ccccc2)NC(=O)[C@@H](NC(=O)CNC(=O)[C@H](CCC(N)=O)NC(=O)C(C)(C)NC(=O)[C@@H](N)Cc2ccc(O)cc2)[C@@H](C)O)[C@@H](C)O)[C@@H](C)CC)C(=O)N[C@@H](C)C(=O)N[C@@H](CCC(N)=O)C(=O)NC(C)(C)C(=O)N1)C(=O)N[C@@H](CCC(=O)O)C(=O)N[C@@H](Cc1ccccc1)C(=O)N[C@@H](CC(C)C)C(=O)N[C@@H](CC(C)C)C(=O)N[C@@H](CCC(=O)O)C(=O)NCC(=O)NCC(=O)N1CCC[C@H]1C(=O)N[C@@H](CO)C(=O)N[C@@H](CO)C(=O)NCC(=O)N[C@@H](C)C(=O)N1CCC[C@H]1C(=O)N1CCC[C@H]1C(=O)N1CCC[C@H]1C(=O)N[C@@H](CO)C(N)=O", "note": "[Example 22, YAibQGT FTSDY SIα- MeLLD K^1KAQAib ^1KFIEF LLEGG PSSGA PPPS-NH2 (SEQ ID NO: 25)]", "values": [{"measurement": "EC50", "setting": "[3]; [4]", "result": 9, "unit": "pM"}]}, {"smiles": "CC[C@H](C)[C@@H]1NC(=O)[C@H](Cc2ccccc2)NC(=O)[C@@H](NC(=O)C(C)(C)NC(=O)[C@H](CCC(N)=O)NC(=O)[C@H](C)NC(=O)[C@H](CCCCN)NC(=O)[C@H](CCCCN)NC(=O)[C@H](CC(=O)O)NC(=O)[C@H](CC(C)C)NC(=O)[C@](C)(CC(C)C)NC(=O)[C@@H](NC(=O)[C@H](CO)NC(=O)[C@H](Cc2ccc(O)cc2)NC(=O)[C@H](CC(=O)O)NC(=O)[C@H](CO)NC(=O)[C@@H](NC(=O)[C@H](Cc2ccccc2)NC(=O)[C@@H](NC(=O)CNC(=O)[C@H](CCC(N)=O)NC(=O)C(C)(C)NC(=O)[C@@H](N)Cc2ccc(O)cc2)[C@@H](C)O)[C@@H](C)O)[C@@H](C)CC)CCCCNC(=O)CN(C(=O)COCCOCCNC(=O)COCCOCCNC(=O)CC[C@H](NC(=O)CCCCCCCCCCCCCCCCCCC(=O)O)C(=O)O)CC(=O)NCCCC[C@@H](C(=O)NCC(=O)NCC(=O)N2CCC[C@H]2C(=O)N[C@@H](CO)C(=O)N[C@@H](CO)C(=O)NCC(=O)N[C@@H](C)C(=O)N2CCC[C@H]2C(=O)N2CCC[C@H]2C(=O)N2CCC[C@H]2C(=O)N[C@@H](CO)C(N)=O)NC(=O)[C@H](CC(C)C)NC(=O)[C@H](CC(C)C)NC(=O)[C@H](Cc2ccc(O)cc2)NC(=O)[C@H](CCC(=O)O)NC1=O", "note": "[Example 14, YAibQGT FTSDY SIα- MeLLD KKAQAib ^1KFIEY LLIKGG PSSGA PPPS-NH2 (SEQ ID NO: 20)]", "values": [{"measurement": "EC50", "setting": "[3]; [4]", "result": 1, "unit": "pM"}]}, {"smiles": "CC[C@H](C)[C@H](NC(=O)[C@H](Cc1ccccc1)NC(=O)[C@H](C)NC(=O)C(C)(C)NC(=O)[C@H](CCC(N)=O)NC(=O)[C@H](C)NC(=O)[C@@H]1CCCCNC(=O)CN(C(=O)COCCOCCNC(=O)[C@@H](N)CCCCNC(=O)CC[C@H](NC(=O)CCCCCCCCCCCCCCCCCCC(=O)O)C(=O)O)CC(=O)NCCCC[C@H](NC(=O)[C@](C)(CC(C)C)NC(=O)[C@@H](NC(=O)[C@H](CO)NC(=O)[C@H](Cc2ccc(O)cc2)NC(=O)[C@H](CC(=O)O)NC(=O)[C@H](CO)NC(=O)[C@@H](NC(=O)[C@H](Cc2ccccc2)NC(=O)[C@@H](NC(=O)CNC(=O)[C@H](CCC(N)=O)NC(=O)C(C)(C)NC(=O)[C@@H](N)Cc2ccc(O)cc2)[C@@H](C)O)[C@@H](C)O)[C@@H](C)CC)C(=O)N[C@@H](CC(=O)O)C(=O)N[C@@H](CCCCN)C(=O)N1)C(=O)N[C@@H](CCC(=O)O)C(=O)N[C@@H](Cc1ccc(O)cc1)C(=O)N[C@@H](CC(C)C)C(=O)N[C@@H](CC(C)C)C(=O)N[C@@H](CCCCN)C(=O)NCC(=O)NCC(=O)N1CCC[C@H]1C(=O)N[C@@H](CO)C(=O)N[C@@H](CO)C(=O)NCC(=O)N[C@@H](C)C(=O)N1CCC[C@H]1C(=O)N1CCC[C@H]1C(=O)N1CCC[C@H]1C(=O)N[C@@H](CO)C(N)=O", "note": "[Example 54, YAibQGT FTSDY SIα- MeL^1KD K^1KAQAib AFIEY LLKGG PSSGA PPPS-NH2 (SEQ ID NO: 38)]", "values": [{"measurement": "EC50", "setting": "[3]; [4]", "result": 2, "unit": "pM"}]}]}
